Experimental data as given in the supplement of paper PMC10702517.
± gives the standard deviation.

Columns and labels:
[1] = chemical recovery from spiked human plasma; higher = better extraction; details: pooled human plasma
[2] = chemical recovery into PDMS from spiked human plasma; higher = better extraction; details: pooled human plasma, extraction method: PES with PDMS
[3] = chemical recovery by SPE of plasma after PDMS sampling; higher = better extraction; details: pooled human plasma, extraction method: HLB SPE of plasma after PES
[4] = extraction method: SPE only (HLB 96-well)
[5] = extraction method: solvent precipitation (ACN + hexane)
[6] = extraction method: SPE only (HLB 96-well), PES comparison experiment
[7] = extraction method: PES+SPE (3 d PDMS equilibration then HLB SPE)
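Throughout, for chemical recovery by SPE of plasma after PDMS sampling: over 400 spiked chemicals quantified by LC-HRMS or GC-HRMS via internal standard calibration, recovery relative to spike mix added to unspiked plasma extract to correct matrix effects.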

Compound | chemical recovery [1, 4] [%] | chemical recovery [1, 5] [%] | chemical recovery into PDMS ([2]; equilibration time (d): 1) [%] | chemical recovery into PDMS ([2]; equilibration time (d): 3) [%] | chemical recovery into PDMS ([2]; equilibration time (d): 6) [%] | chemical recovery by SPE of plasma ([3]; equilibration time (d): 1) [%] | chemical recovery by SPE of plasma ([3]; equilibration time (d): 3) [%] | chemical recovery by SPE of plasma ([3]; equilibration time (d): 6) [%] | chemical recovery [1, 6] [%] | chemical recovery [1, 7] [%]
c1cc2cccc3c4cccc5cccc(c(c1)c23)c54 [Perylene] | 1.66 ± 0.56 | 64.2 ± 5.1 | 73.8 ± 6.2 | 71.9 ± 9.9 | 79.5 ± 6 | 0.65 ± 0.62 | 1.03 ± 0.53 | 1.2 ± 0.41 | – | –
CCOCCN(C(=O)CCl)C(=C(C)C)c1ccccc1 [Pethoxamid] | – | 56.3 ± 2.8 | 41 ± 2.5 | 43.5 ± 3.3 | 43.2 ± 1.5 | – | 0.187 ± 0.32 | – | 49.5 ± 6.9 | –
O=S(=O)(O)c1ccc2[nH]c(-c3ccccc3)nc2c1 [Phenylbenzimidazole sulfonic acid] | 36.9 ± 3.3 | 27.9 ± 3.1 | 0.124 ± 0.24 | – | – | 42.2 ± 5.2 | 49 ± 1.8 | 45.8 ± 8.4 | 52 ± 5.8 | 43.2 ± 2.9
CO/C=C(/C(=O)OC)c1ccccc1COc1cccc(C(F)(F)F)n1 [Picoxystrobin] | 38.3 ± 2.8 | 63.7 ± 4.3 | 47 ± 3.2 | 48.5 ± 5.8 | 48.7 ± 2.7 | 1.61 ± 0.23 | 2.06 ± 0.34 | 0.862 ± 0.75 | 47.8 ± 7.1 | –
O=C(/C=C/C=C/c1ccc2c(c1)OCO2)N1CCCCC1 [Piperine] | 40.7 ± 2.7 | 83.6 ± 4 | 34.8 ± 3.2 | 39.3 ± 4.2 | 36.6 ± 1.7 | 1.77 ± 0.44 | 1.85 ± 0.37 | 0.965 ± 0.074 | 56.1 ± 7.1 | –
CCCCOCCOCCOCc1cc2c(cc1CCC)OCO2 [Piperonyl butoxide] | – | – | 46.4 ± 3.2 | 48.7 ± 3.9 | 46 ± 2.6 | 0.249 ± 0.12 | 0.337 ± 0.29 | 0.24 ± 0.013 | 39.5 ± 6.4 | –
Cc1nc(N(C)C)nc(OC(=O)N(C)C)c1C [Pirimicarb] | 34.3 ± 1.5 | 64.5 ± 2.5 | 29.3 ± 1.2 | 33.3 ± 1.8 | 34 ± 1.7 | 6.05 ± 0.55 | 6.09 ± 1 | 4.09 ± 0.28 | 41.4 ± 5.3 | 55.6 ± 8
CCN(CC)c1nc(C)cc(OP(=S)(OC)OC)n1 [Pirimiphos-methyl] | 36.4 ± 3.4 | 68.8 ± 5.2 | 29.7 ± 4.3 | 33.5 ± 3.9 | 32.1 ± 0.42 | 0.602 ± 0.13 | 0.453 ± 0.41 | 0.275 ± 0.24 | 42.9 ± 8.2 | –
C[C@]12C=CC(=O)C=C1CC[C@@H]1[C@@H]2C(=O)C[C@@]2(C)[C@H]1CC[C@]2(O)C(=O)CO [Prednisone] | – | – | – | 0.176 ± 0.18 | 0.265 ± 0.091 | 41.6 ± 4.3 | 43.7 ± 5.1 | 41.1 ± 2.4 | 45.5 ± 5.8 | –
CCCNCCOc1c(Cl)cc(Cl)cc1Cl [Prochloraz BTS403-48] | 47.1 ± 2 | 71.2 ± 3 | 0.602 ± 0.13 | 0.604 ± 0.12 | 0.862 ± 0.22 | 0.247 ± 0.057 | 0.287 ± 0.11 | 0.165 ± 0.0069 | 46.2 ± 5.1 | 1.17 ± 0.37
CC(C)N(C(=O)CCl)c1ccccc1 [Propachlor] | 28.6 ± 2.1 | 45.1 ± 10 | 31.9 ± 1.8 | 34.7 ± 3.9 | 35.3 ± 2.5 | 1.58 ± 0.41 | 2.49 ± 0.44 | 1.58 ± 0.092 | 41.4 ± 7.8 | –
CCCC1COC(Cn2cncn2)(c2ccc(Cl)cc2Cl)O1 (stereo unspecified) [Propiconazole] | – | 70.3 ± 3.4 | 38.2 ± 2.5 | 41 ± 3.7 | 40.7 ± 1.6 | 0.277 ± 0.24 | 0.384 ± 0.17 | 0.117 ± 0.052 | 43.1 ± 6.8 | –
CC(C)NCC(O)COc1cccc2ccccc12 (stereo unspecified) [Propranolol] | 45.4 ± 2.9 | 71.9 ± 3.2 | 0.322 ± 0.19 | 0.522 ± 0.36 | 0.438 ± 0.19 | 8.66 ± 0.64 | 9.06 ± 1.1 | 7.31 ± 0.57 | 50 ± 7 | 7.98 ± 1.1
CCCOC(=O)c1ccc(O)cc1 [Propylparaben] | 43.1 ± 2.1 | 70.6 ± 3.7 | 11.6 ± 0.24 | 13.2 ± 1.9 | 14.8 ± 2 | 40.3 ± 8.2 | 43 ± 3.8 | 34 ± 0.68 | 67.9 ± 7.4 | 56.4 ± 4.7
Cc1c(C(C)C)c(=O)n(-c2ccccc2)n1C [Propyphenazone] | 44.6 ± 2.6 | 69.31 ± 0.67 | 17.3 ± 1.9 | 22 ± 0.25 | 23 ± 2.1 | 4.36 ± 0.18 | 3.89 ± 0.79 | 2.01 ± 0.19 | 47.3 ± 6.5 | 48.4 ± 9.9
C#CC(C)(C)NC(=O)c1cc(Cl)cc(Cl)c1 [Propyzamide] | 65 ± 3.2 | 64.8 ± 3.9 | 34.8 ± 1.4 | 38.5 ± 1.1 | 39.4 ± 0.71 | 5.12 ± 0.61 | 7.16 ± 0.99 | 4.71 ± 0.68 | 48.1 ± 8.4 | 64.9 ± 12
OC(Cc1ccccc1Cl)(Cn1cncn1)C1(Cl)CC1 (stereo unspecified) [Prothioconazole-desthio] | – | 89.2 ± 4 | 36.2 ± 2.6 | 38.6 ± 2 | 38.5 ± 1.7 | 0.693 ± 0.059 | 0.829 ± 0.22 | 0.428 ± 0.025 | 47 ± 6.8 | –
c1cc2ccc3cccc4ccc(c1)c2c34 [Pyrene] | 19.5 ± 5.1 | – | – | 79.6 ± 17 | 77.8 ± 20 | 4.17 ± 2.2 | 5.06 ± 1.2 | 3.59 ± 0.37 | 19.4 ± 2.8 | –
c1ccc2ncccc2c1 [Quinoline] | 16.5 ± 4.6 | – | 8.77 ± 5.3 | 9.55 ± 7.5 | 4.43 ± 4.2 | 0.053 ± 0.092 | 0.00565 ± 0.0098 | 0.0105 ± 0.018 | – | –
